How the values were obtained:
[1] = tested on: AKT phosphorylation in T47D cells; test: Immunoblot of AKT phosphorylation, serum starved T47D; format: cell-based, human; conditions: 0.1 µM
Method: (§1) The ENDX hydrochloride utilized in this study was synthesized in collaboration between Mayo Clinic and National Institute of Health (NIH). Estrogen deprived MCF7AC1 were treated with vehicle control or ENDX (National Cancer Institute) for 24 h. For the phorbol 12-myristate 13-acetate (PMA) (LC Laboratories, #P-1680) experiments, MCF7AC1 cells were maintained in serum-free medium for 24 h prior to pretreatment with vehicle or ENDX for 2 h followed by treatment with 20 or 200 nM PMA for 20 min. For the insulin (Sigma-Aldrich, #I0516) experiments, MCF7AC1 and T47D cells were maintained in serum-free medium for 24 h prior to pretreatment with vehicle control or drugs for 2 h followed by treatment with 100 nM insulin for 1 h.
Protein lysates were prepared using the RIPA lysis buffer system (ChemCruz #sc-24948) and quantified using the DC^TM Protein Assay reagents (Bio-Rad #5000112). Equal amounts of protein lysates were separated on 10% Criterion gels (Bio-Rad #3450112), transferred to PVDF membranes (Bio-Rad #1620177), blocked in TBST-5% milk and probed with primary antibodies listed in Supplementary Table 5, at the indicated dilutions. Membranes were incubated with HRP-conjugated anti-rabbit (CST #7074) or anti-mouse (CST #7076) secondary antibodies and visualized using chemiluminescent West Pico (Thermo Scientific #34580) or West Femto (Thermo Scientific #34096) reagents and a Li-Cor Odyssey® XF imager. […] Quantitation of the protein bands signal intensity was performed using the NIH ImageJ image analysis software (https://imagej.nih.gov/ij///index.html). For the quantitation of the phospho protein levels, we first normalized total protein levels to β-actin loading control and used these values to normalize the phospho protein levels and compared change in protein expression levels relative to vehicle control normalized to 1.0. For the quantitation of total protein levels, we normalized the total protein levels to β-actin and compared change in expression levels relative to vehicle control normalized to 1.0. […]

[2] = tested on: AKT phosphorylation (pAKT^Ser473, pAKT^Thr308, p-AKT substrates) in MCF7AC1 cells; test: Immunoblot of AKT signaling and PARP cleavage, MCF7AC1; format: cell-based, human; conditions: for Effect on insulin-stimulated AKT^Ser473 and AKT^Thr308 phosphorylations: 100 nM insulin 1 h, 0.1 µM
Method: The ENDX hydrochloride utilized in this study was synthesized in collaboration between Mayo Clinic and National Institute of Health (NIH). Estrogen deprived MCF7AC1 were treated with vehicle control or ENDX (National Cancer Institute) for 24 h. […] For the insulin (Sigma-Aldrich, #I0516) experiments, MCF7AC1 and T47D cells were maintained in serum-free medium for 24 h prior to pretreatment with vehicle control or drugs for 2 h followed by treatment with 100 nM insulin for 1 h.
(§2) Protein lysates were prepared using the RIPA lysis buffer system (ChemCruz #sc-24948) and quantified using the DC^TM Protein Assay reagents (Bio-Rad #5000112). Equal amounts of protein lysates were separated on 10% Criterion gels (Bio-Rad #3450112), transferred to PVDF membranes (Bio-Rad #1620177), blocked in TBST-5% milk and probed with primary antibodies listed in Supplementary Table 5, at the indicated dilutions. Membranes were incubated with HRP-conjugated anti-rabbit (CST #7074) or anti-mouse (CST #7076) secondary antibodies and visualized using chemiluminescent West Pico (Thermo Scientific #34580) or West Femto (Thermo Scientific #34096) reagents and a Li-Cor Odyssey® XF imager. Protein lysates from the MCF7AC1 xenograft model were obtained from a previous study. Quantitation of the protein bands signal intensity was performed using the NIH ImageJ image analysis software (https://imagej.nih.gov/ij///index.html). For the quantitation of the phospho protein levels, we first normalized total protein levels to β-actin loading control and used these values to normalize the phospho protein levels and compared change in protein expression levels relative to vehicle control normalized to 1.0. For the quantitation of total protein levels, we normalized the total protein levels to β-actin and compared change in expression levels relative to vehicle control normalized to 1.0. All blots were processed in parallel and derived from the same experiments. Unprocessed immunoblot images are provided in Supplementary Figs. 9–13.

PKCβ1 in MCF7AC1 cells [3] = test: Immunoblot of PKCβ1 and pPKCβ1^Ser661, MCF7AC1; format: cell-based, human; conditions: serum starved; for Effect on PKCβ1 total protein in insulin treated cells: 100 nM insulin 1 h, ENDX 0.01, 0.1, 5 µM, TAM 0.1 µM, ICI 0.1 µM
Method: as §1, §2

MCF7AC1 cells [4] = test: IncuCyte Annexin V apoptosis assay, MCF7AC1; format: cell-based, human; conditions: for Effect on apoptosis: CSS medium, 48 h, ENDX 5 µM, TAM 0.1 µM, ICI 0.1 µM
Method: (§3) MCF7AC1 and T47D-LTED cells were plated at a density of 2000 cells per well in CSS medium for 24 h. Cells were then co-treated for 48 h with vehicle or drug, IncuCyte Annexin V green reagent (#4642, 1:300), an early-stage apoptosis marker, and IncuCyte NucLight rapid red reagent (#4717, 1:500), a dye that stains all cell nuclei red, in CSS medium. MCF7AC1^caAKT cells were plated at a cell density of 2000 cells per well in CSS medium in the absence or presence of cumate for 48 h and then co-treated with vehicle or drug, Annexin V green and NucLight rapid red reagents in the absence or presence of cumate for an additional 48 h in CSS medium.

PKCβ1 in MCF7AC1 cells [5] = test: Immunoblot of PKCβ1 and pPKCβ1^Ser661, MCF7AC1; format: cell-based, human; conditions: serum starved, 1 µM ENZA 2 h, 200 nM PMA 30 min
[6] = tested on: AKT^Ser473 phosphorylation in T47D-LTED cells; test: Immunoblot of pAKT^Ser473, T47D-LTED; format: cell-based, human; conditions: CSS medium, 24 h; 1 and 5 µM, but not 0.1 µM
Method: Protein lysates were prepared using the RIPA lysis buffer system (ChemCruz #sc-24948) and quantified using the DC^TM Protein Assay reagents (Bio-Rad #5000112). Equal amounts of protein lysates were separated on 10% Criterion gels (Bio-Rad #3450112), transferred to PVDF membranes (Bio-Rad #1620177), blocked in TBST-5% milk and probed with primary antibodies listed in Supplementary Table 5, at the indicated dilutions. Membranes were incubated with HRP-conjugated anti-rabbit (CST #7074) or anti-mouse (CST #7076) secondary antibodies and visualized using chemiluminescent West Pico (Thermo Scientific #34580) or West Femto (Thermo Scientific #34096) reagents and a Li-Cor Odyssey® XF imager. Protein lysates from the MCF7AC1 xenograft model were obtained from a previous study. Quantitation of the protein bands signal intensity was performed using the NIH ImageJ image analysis software (https://imagej.nih.gov/ij///index.html). For the quantitation of the phospho protein levels, we first normalized total protein levels to β-actin loading control and used these values to normalize the phospho protein levels and compared change in protein expression levels relative to vehicle control normalized to 1.0. For the quantitation of total protein levels, we normalized the total protein levels to β-actin and compared change in expression levels relative to vehicle control normalized to 1.0. […]

MCF7AC1 cells [7] = test: Crystal violet cell viability / proliferation assay, MCF7AC1; format: cell-based, human; conditions: estrogen deprived (CSS), six days
Method: Fig. 1 Z-endoxifen (ENDX) effects on cell viability and apoptosis in estrogen deprived ERα+ /HER2- MCF7AC1 cells. a Cells grown in CSS medium were treated with vehicle control or the indicated ENDX concentrations for […]. Cell viability was assessed by the crystal violet assay. b Cells were co-treated with vehicle control or the indicated ENDX concentrations, IncuCyte Annexin V green and NucLight red reagents in CSS medium for 48 h. […] Data represents the mean of six wells per treatment performed as biological duplicates ± s.d. **p ≤ 0.01; ***p ≤ 0.001; ****p ≤ 0.0001 by one-way ANOVA.
(§4) Cells were plated at a density of 2000 cells per well. Cell viability of (i) vehicle or drug treated MCF7AC1 and T47D-LTED cells in CSS medium, (ii) siNT or siPKCβ-transfected MCF7AC1 cells in CSS medium and (iii) T47D cells in FBS versus CSS medium were analyzed by crystal violet staining assay after 6 days of treatment or siRNA transfection as previously described. Cell viability was calculated as the average absorbance of the drug treated cells divided by the average absorbance of the vehicle treated cells × 100.

T47D-LTED cells [8] = test: IncuCyte Annexin V apoptosis assay, T47D-LTED; format: cell-based, human; conditions: CSS medium; 1 and 5 µM, but not 0.1 µM
Method: as §3
(§5) Supplementary Figure 6. […] Cell viability is assessed by the crystal violet assay. b, MCF7AC1 cells were co-treated with vehicle control or 0.01, 0.1 and 5 µM MK-2206 and IncuCyte Annexin V green and NucLight rapid red reagents in CSS medi um for 48 hours. […]
Cells were plated at a density of 2000 cells per well. c, MCF7AC1 cells were treated with vehicle control or 0.01, 0.1 and 5 µM MK-2206 in CSS medium for 24 hours. […] Cell viability is assessed by the crystal violet assay. f, Parental T47D and T47D-LTED cells were processed for protein lysates. […] Percentage of cells undergoing apoptosis was calculated as mentioned in b. i, T47D-LTED cells were treated with vehicle control or 0.01, 0.1 and 5 µM MK -2206 in CSS medium for 24 hours . […]

T47D-LTED cells [9] = test: Crystal violet cell viability assay, T47D-LTED; format: cell-based, human; conditions: CSS medium, six days
Method: as §4, §5
Cells were plated at a density of 2000 cells per well. c, MCF7AC1 cells were treated with vehicle control or 0.01, 0.1 and 5 µM MK-2206 in CSS medium for 24 hours. […] Cell viability is assessed by the crystal violet assay. f, Parental T47D and T47D-LTED cells were processed for protein lysates. […] Cell viability is assessed by the crystal violet assay. h, T47D-LTED cells were co-treated with vehicle control or 0.01, 0.1 and 5 µM MK -2206 and IncuCyte Annexin V green and NucLight rapid red reagents in CSS medium for 48 hours. […] Cell viability is assessed by the crystal violet assay. […]

[10] = ERα+ breast cancer patients receiving 20 mg/day TAM monotherapy; cited from earlier work
[11] = tested on: ERα+/HER2- metastatic breast cancer; conditions: cited from earlier work

## C[C@]12CC[C@@H]3c4ccc(O)cc4C[C@@H](CCCCCCCCC[S+]([O-])CCCC(F)(F)C(F)(F)F)[C@H]3[C@@H]1CC[C@@H]2O (stereo partly drawn) [ICI, ICI-182780, reference compound]
[1]
  Effect on insulin-stimulated AKT^Ser473 phosphorylation: failing to block insulin-stimulated AKT^Ser473 phosphorylation
[2]; serum starved
  Effect on insulin-stimulated AKT^Ser473 and AKT^Thr308 phosphorylations: failed to inhibit insulin-stimulated AKT^Ser473 and AKT^Thr308 phosphorylations
PKCβ1 in MCF7AC1 cells [3]
  Effect on PKCβ1 total protein in insulin treated cells: failed to diminish PKCβ1 total protein expression
MCF7AC1 cells [4]
  Effect on apoptosis: failed to induce apoptosis

## Cn1cc(C2=C(c3cn(C4CCN(Cc5ccccn5)CC4)c4ccccc34)C(=O)NC2=O)c2ccccc21 [enzastaurin]
PKCβ1 in MCF7AC1 cells [5]
  Effect on PKCβ1 expression: neither impacted the expression of PKCβ1
  Effect on PMA-stimulated PKCβ1^Ser661 phosphorylation: reduced PKCβ1^Ser661 phosphorylation

## NC1(c2ccc(-c3nc4ccn5c(=O)[nH]nc5c4cc3-c3ccccc3)cc2)CCC1 [MK-2206, reference compound]
[6]
  Concentrations reducing AKT^Ser473 phosphorylation: ≥ 1 µM
MCF7AC1 cells [7]
  Concentrations at which growth was inhibited: ≥ 0.1 µM
T47D-LTED cells [8]
  Concentrations increasing apoptosis (annexin V staining, PARP cleavage): ≥ 1 µM
T47D-LTED cells [9]
  Concentration from which growth was significantly inhibited: ≥ 0.1 µM
[2]; estrogen deprived (CSS), 24 h
  Concentrations at which AKT^Ser473 phosphorylation was reduced: ≥ 1 µM
MCF7AC1 cells [4]; estrogen deprived (CSS)
  Concentration at which apoptosis (annexin V binding and PARP1 cleavage) was induced: 5 µM

## Insulin: known activator of AKT^Ser473 phosphorylation (Sigma-Aldrich)
[2]; serum starved, 100 nM, 1 h
  Effect on AKT^Ser473 phosphorylation: robustly stimulated AKT^Ser473 phosphorylation

## CC/C(=C(\c1ccc(O)cc1)c1ccc(OCCN(C)C)cc1)c1ccccc1 [4-HT]
[10]
  Clinically attainable serum concentration: < 5 nM

## CC/C(=C(\c1ccccc1)c1ccc(OCCN(C)C)cc1)c1ccccc1 [TAM, tamoxifen, reference compound]
[11]; CDK4/6i naïve
  PFS in CDK4/6 inhibitor naïve patients: 2.4 m
[11]; women with ERα+/HER2- metastatic breast cancer progressed on endocrine therapy
  Progression free survival (PFS) overall: 1.8 m
[1]
  Effect on insulin-stimulated AKT^Ser473 phosphorylation: failing to block insulin-stimulated AKT^Ser473 phosphorylation
[2]; serum starved
  Effect on insulin-stimulated AKT^Ser473 and AKT^Thr308 phosphorylations: failed to inhibit insulin-stimulated AKT^Ser473 and AKT^Thr308 phosphorylations
PKCβ1 in MCF7AC1 cells [3]
  Effect on PKCβ1 total protein in insulin treated cells: failed to diminish PKCβ1 total protein expression
MCF7AC1 cells [4]
  Effect on apoptosis: failed to induce apoptosis

## CCCCCCCCCCCCCC(=O)O[C@@H]1[C@@H](C)[C@@]2(O)[C@@H](C=C(CO)C[C@]3(O)C(=O)C(C)=C[C@@H]23)[C@@H]2C(C)(C)[C@]12OC(C)=O [PMA, phorbol 12-myristate 13-acetate, reference compound]
PKCβ1 in MCF7AC1 cells [3]; 20 and 200 nM, 20 min
  Effect of PKC agonist on PKCβ1^Ser661 and AKT^Ser473 phosphorylation: stimulated PKCβ1^Ser661 auto-phosphorylation and AKT^Ser473 phosphorylation

Source: article PMC10730845, “Endoxifen downregulates AKT phosphorylation through protein kinase C beta 1 inhibition in ERα+ breast cancer” (NPJ Breast Cancer, 2023)
